What was measured:
[1] = target: Homeodomain-interacting protein kinase 3 (Homo sapiens) (UniProt Q9H422); experiment: Residual activity of HIPK3 at 1 uM by microplate scintillation counting
[2] = target: T1, Inhibitor of nuclear factor kappa-B kinase subunit epsilon (Homo sapiens) (UniProt Q14164); experiment: Residual activity of IKKepsilon at 1 uM by microplate scintillation counting
T1 sequence (whole entry): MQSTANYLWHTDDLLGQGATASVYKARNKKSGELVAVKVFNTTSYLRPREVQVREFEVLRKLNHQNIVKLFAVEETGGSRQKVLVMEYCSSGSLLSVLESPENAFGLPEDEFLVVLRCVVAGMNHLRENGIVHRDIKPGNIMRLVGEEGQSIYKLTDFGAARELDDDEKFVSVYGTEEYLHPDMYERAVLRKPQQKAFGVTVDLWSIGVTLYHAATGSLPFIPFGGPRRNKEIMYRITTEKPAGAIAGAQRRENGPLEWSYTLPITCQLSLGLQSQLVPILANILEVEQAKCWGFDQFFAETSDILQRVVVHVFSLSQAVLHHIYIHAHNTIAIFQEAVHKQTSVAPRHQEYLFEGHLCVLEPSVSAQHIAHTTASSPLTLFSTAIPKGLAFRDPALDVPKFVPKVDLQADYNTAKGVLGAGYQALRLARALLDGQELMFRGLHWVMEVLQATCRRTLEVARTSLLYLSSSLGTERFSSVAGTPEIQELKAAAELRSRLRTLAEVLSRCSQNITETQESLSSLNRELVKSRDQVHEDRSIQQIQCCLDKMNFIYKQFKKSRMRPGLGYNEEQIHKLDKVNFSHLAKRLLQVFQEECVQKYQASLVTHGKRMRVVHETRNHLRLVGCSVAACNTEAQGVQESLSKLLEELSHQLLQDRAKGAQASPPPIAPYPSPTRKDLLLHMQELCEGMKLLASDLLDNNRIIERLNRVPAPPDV

[3] = target: T2, Muscle, skeletal receptor tyrosine-protein kinase (Homo sapiens) (UniProt O15146); experiment: Residual activity of MUSK at 1 uM by microplate scintillation counting
T2 sequence (whole entry): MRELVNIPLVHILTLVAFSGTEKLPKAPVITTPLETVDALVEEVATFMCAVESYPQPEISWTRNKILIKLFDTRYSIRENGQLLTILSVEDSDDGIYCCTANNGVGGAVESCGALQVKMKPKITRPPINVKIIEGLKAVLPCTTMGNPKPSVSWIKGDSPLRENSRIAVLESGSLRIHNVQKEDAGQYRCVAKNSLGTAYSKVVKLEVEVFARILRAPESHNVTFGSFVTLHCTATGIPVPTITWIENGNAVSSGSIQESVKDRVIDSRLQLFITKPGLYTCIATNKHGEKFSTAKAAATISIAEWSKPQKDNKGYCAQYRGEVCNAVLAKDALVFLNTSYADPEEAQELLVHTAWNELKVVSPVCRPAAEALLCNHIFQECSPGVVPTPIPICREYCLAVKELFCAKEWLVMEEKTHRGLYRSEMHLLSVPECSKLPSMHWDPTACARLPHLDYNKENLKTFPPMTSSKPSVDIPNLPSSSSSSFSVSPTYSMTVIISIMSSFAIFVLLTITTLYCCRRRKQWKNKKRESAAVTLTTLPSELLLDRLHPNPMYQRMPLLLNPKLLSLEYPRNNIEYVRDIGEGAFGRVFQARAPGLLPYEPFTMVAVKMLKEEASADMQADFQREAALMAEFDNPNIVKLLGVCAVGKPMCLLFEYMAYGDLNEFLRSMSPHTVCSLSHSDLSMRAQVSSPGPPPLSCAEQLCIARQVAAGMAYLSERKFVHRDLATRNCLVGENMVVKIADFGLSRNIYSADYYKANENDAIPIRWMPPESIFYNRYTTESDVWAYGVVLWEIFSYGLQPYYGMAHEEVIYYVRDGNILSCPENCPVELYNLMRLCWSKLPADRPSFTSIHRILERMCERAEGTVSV

[4] = target: Fibroblast growth factor receptor 3 (Homo sapiens) (UniProt P22607); experiment: Residual activity of FGFR3 at 10 uM by microplate scintillation counting
[5] = target: Glycogen synthase kinase-3 alpha (Homo sapiens) (UniProt P49840); experiment: Residual activity of GSK3alpha at 10 uM by microplate scintillation counting
[6] = target: RAC-gamma serine/threonine-protein kinase (Homo sapiens) (UniProt Q9Y243); experiment: Residual activity of AKT3 at 0.1 uM by microplate scintillation counting
[7] = target: CDK3/cyclin E (Homo sapiens) (UniProt P24864+O96020+Q00526); experiment: Residual activity of CDK3/Cyclin E at 0.1 uM by microplate scintillation counting; assay type: protein-complex assay
[8] = target: Casein kinase I isoform gamma-3 (Homo sapiens) (UniProt Q9Y6M4); experiment: Residual activity of CK1gamma3 at 0.1 uM by microplate scintillation counting
Chain of Casein kinase I isoform gamma-3 (Homo sapiens) (Q9Y6M4 whole entry, looked up, canonical isoform): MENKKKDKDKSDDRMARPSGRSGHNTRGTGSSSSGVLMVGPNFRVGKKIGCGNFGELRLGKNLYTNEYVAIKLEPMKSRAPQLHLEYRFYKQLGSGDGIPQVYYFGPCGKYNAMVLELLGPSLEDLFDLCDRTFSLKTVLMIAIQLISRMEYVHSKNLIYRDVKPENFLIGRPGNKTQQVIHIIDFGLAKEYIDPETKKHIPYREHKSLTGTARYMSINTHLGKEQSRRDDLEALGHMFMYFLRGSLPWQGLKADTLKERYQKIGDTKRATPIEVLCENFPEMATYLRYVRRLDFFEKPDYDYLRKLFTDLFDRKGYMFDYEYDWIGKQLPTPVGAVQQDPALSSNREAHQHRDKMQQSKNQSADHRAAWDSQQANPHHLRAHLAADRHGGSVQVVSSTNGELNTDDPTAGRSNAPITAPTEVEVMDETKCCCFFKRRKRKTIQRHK

Chain of RAC-gamma serine/threonine-protein kinase (Homo sapiens) (Q9Y243 whole entry): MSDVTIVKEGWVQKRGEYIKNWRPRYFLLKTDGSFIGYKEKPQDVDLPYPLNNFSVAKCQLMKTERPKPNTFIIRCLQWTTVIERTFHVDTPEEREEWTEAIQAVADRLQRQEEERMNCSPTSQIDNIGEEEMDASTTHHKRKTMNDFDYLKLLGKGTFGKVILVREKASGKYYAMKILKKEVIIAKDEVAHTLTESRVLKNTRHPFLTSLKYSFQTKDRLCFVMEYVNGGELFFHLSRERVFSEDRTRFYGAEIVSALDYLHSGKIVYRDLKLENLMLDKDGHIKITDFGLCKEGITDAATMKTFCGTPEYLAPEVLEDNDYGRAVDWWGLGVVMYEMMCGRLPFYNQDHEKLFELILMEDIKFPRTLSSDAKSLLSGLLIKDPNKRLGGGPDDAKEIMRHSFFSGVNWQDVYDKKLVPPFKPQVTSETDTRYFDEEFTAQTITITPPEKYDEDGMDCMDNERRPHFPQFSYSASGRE
Chain of Fibroblast growth factor receptor 3 (Homo sapiens) (P22607 23-806 limits assumed): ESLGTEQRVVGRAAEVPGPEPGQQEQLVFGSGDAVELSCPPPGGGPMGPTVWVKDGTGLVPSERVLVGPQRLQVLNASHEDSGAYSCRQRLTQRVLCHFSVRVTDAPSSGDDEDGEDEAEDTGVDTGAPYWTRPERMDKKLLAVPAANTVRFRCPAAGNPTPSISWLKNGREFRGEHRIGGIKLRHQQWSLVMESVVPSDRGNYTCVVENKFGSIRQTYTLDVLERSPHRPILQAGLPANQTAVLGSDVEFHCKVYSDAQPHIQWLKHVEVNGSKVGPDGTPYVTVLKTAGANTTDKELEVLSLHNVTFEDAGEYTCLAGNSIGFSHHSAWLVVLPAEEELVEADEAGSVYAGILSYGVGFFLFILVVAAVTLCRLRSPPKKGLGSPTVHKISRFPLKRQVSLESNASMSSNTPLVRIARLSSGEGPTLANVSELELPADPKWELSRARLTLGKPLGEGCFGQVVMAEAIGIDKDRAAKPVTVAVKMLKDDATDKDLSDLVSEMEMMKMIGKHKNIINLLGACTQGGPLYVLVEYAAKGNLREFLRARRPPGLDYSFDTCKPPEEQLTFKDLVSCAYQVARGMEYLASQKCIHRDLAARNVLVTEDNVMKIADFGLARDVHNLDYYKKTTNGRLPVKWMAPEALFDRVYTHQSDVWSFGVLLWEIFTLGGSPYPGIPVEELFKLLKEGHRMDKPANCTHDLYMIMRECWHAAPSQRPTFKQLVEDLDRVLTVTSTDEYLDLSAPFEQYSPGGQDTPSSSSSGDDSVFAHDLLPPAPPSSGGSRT
Chain of CDK3/cyclin E (Homo sapiens) (O96020 whole entry, looked up, canonical isoform): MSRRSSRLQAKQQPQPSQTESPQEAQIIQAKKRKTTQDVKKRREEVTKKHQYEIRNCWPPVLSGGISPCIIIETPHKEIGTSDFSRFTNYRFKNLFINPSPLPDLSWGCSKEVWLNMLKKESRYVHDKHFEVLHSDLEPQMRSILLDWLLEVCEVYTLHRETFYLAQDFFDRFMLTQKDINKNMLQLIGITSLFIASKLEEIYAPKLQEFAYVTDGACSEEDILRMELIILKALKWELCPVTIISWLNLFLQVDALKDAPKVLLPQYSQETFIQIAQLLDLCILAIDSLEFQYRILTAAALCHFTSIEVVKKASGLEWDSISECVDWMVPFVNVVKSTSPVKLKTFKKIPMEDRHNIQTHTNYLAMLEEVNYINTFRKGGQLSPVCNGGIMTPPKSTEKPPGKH
Chain of CDK3/cyclin E (Homo sapiens) (P24864 whole entry, looked up, canonical isoform): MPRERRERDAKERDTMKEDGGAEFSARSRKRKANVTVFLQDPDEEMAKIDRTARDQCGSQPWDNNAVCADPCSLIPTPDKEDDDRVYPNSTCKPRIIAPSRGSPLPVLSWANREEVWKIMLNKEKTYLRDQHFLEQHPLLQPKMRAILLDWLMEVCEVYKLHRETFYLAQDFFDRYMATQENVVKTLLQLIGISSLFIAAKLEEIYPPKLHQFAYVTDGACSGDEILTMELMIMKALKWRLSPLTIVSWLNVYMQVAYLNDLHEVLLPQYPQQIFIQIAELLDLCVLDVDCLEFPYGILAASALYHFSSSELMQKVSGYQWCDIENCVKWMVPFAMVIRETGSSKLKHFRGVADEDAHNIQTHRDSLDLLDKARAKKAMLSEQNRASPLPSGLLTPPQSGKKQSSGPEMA
Chain of CDK3/cyclin E (Homo sapiens) (Q00526 whole entry, looked up, canonical isoform): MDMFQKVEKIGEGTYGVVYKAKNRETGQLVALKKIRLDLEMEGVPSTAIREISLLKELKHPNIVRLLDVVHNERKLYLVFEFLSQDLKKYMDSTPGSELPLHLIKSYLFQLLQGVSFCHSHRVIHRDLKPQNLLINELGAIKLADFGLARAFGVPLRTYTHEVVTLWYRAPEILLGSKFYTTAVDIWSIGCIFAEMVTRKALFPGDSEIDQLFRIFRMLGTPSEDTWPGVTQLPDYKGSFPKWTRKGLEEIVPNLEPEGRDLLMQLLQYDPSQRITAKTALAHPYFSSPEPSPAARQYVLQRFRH
Chain of Glycogen synthase kinase-3 alpha (Homo sapiens) (P49840 2-483 limits assumed): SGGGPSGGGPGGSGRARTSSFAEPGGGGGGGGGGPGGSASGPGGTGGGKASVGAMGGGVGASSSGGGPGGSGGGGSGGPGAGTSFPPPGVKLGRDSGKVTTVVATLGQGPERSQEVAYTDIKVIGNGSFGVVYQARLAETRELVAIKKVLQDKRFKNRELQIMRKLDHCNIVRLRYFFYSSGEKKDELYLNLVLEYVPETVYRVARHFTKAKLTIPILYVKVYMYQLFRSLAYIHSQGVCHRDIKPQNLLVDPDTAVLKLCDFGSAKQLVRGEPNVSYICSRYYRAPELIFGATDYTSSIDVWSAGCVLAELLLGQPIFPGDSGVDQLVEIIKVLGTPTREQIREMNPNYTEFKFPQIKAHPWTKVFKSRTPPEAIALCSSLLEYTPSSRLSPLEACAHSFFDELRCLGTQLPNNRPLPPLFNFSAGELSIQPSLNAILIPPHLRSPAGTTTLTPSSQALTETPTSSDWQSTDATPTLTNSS
Chain of Homeodomain-interacting protein kinase 3 (Homo sapiens) (Q9H422 whole entry, looked up): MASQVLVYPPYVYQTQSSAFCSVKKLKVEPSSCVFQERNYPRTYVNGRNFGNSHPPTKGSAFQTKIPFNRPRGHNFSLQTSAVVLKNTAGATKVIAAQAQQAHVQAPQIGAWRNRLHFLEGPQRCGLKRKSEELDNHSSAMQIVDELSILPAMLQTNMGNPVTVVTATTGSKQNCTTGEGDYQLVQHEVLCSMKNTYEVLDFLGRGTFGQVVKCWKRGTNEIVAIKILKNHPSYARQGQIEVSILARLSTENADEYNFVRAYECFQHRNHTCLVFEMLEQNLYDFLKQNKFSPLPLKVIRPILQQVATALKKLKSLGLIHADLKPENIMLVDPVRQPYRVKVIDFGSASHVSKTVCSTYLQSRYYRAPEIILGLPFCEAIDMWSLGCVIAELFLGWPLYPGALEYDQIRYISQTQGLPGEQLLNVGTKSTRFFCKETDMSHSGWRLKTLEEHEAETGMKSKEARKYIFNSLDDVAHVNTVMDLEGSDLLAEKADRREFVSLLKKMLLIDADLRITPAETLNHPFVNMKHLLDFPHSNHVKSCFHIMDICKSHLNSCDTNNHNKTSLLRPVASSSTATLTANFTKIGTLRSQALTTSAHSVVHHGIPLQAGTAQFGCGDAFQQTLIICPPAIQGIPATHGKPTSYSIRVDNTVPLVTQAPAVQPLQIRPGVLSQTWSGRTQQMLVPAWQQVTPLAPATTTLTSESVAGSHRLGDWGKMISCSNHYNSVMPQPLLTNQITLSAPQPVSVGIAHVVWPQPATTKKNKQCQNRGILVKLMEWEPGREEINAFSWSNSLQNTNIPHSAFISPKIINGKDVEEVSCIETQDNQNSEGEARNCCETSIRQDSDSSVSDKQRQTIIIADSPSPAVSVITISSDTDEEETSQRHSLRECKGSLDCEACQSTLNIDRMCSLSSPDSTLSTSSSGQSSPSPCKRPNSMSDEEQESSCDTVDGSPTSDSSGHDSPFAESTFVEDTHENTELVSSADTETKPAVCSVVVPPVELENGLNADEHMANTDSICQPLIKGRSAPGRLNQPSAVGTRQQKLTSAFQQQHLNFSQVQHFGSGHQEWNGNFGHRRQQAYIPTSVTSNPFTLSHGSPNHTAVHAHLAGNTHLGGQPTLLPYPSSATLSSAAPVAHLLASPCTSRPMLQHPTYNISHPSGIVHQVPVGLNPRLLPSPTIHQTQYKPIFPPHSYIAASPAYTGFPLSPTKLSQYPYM

| SMILES | residual activity [1] [%] | residual activity [2] [%] | residual activity [3] [%] | residual activity [4] [%] | residual activity [5] [%] | residual activity [6] [%] | residual activity [7] [%] | residual activity [8] [%] |
| --- | --- | --- | --- | --- | --- | --- | --- | --- |
| COc1cc2c(Oc3ccc(-c4nc5ccccc5s4)cc3)ncnc2cc1OCCCN1CCN(C)CC1 | 84 | 90 | 89 | 171 | 28 | 96 | 86 | 76 |
| COc1cc2c(Oc3ccc(-c4nc5ccccc5s4)cc3)ncnc2cc1OCCCN1CCCC1 | 86 | 98 | 94 | 169 | 62 | 100 | 90 | 94 |
| COc1cc2c(Oc3ccc(-c4nc5ccccc5s4)cc3F)ncnc2cc1OCCCN1CCN(C)CC1 | 81 | 81 | 88 | 46 | 27 | 107 | 98 | 90 |

Source: ChEMBL document CHEMBL1152560, “Substituted 2-arylbenzothiazoles as kinase inhibitors: hit-to-lead optimization” (Bioorg Med Chem, 2009)
